From PubChem BioAssay AID256 (DTP/NCI, 2004)
Values joined by “and” are separate entries in the source; they are usually repeats but may differ in a detail not shown here. Equal values may be shown once. Inconclusive results and toxic doses are left out. How the source made its calls: active means survival T/C of 150% or more; inactive means T/C below 125% in these data.

Tested on: CD2F1 mice, L1210 leukemia ip, survival T/C
Experiment: NCI In Vivo Anticancer Drug Screen. Data for tumor model L1210 Leukemia (intraperitoneal) in CD2F1 (CDF1) mice
Details: higher = longer survival
How it was run: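 Tumor-bearing mice (transplanted tumor) were split into treated and vehicle control groups, and the measured endpoint of each treated group was divided by that of its vehicle controls.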

[1] = endpoint: mean survival time, dose: 100.0 mg/kg/injection, schedule: Q01DX009 (ip), vehicle: saline with Tween-80
[2] = endpoint: mean survival time, dose: 100.0 mg/kg/injection, schedule: Q04DX003 (ip), vehicle: saline with Tween-80
[3] = endpoint: mean survival time, dose: 200.0 mg/kg/injection, schedule: Q01DX009 (ip), vehicle: saline with Tween-80
[4] = endpoint: mean survival time, dose: 200.0 mg/kg/injection, schedule: Q04DX003 (ip), vehicle: saline with Tween-80
[5] = endpoint: mean survival time, dose: 400.0 mg/kg/injection, schedule: Q04DX003 (ip), vehicle: saline with Tween-80
[6] = endpoint: mean survival time, dose: 400.0 mg/kg/injection, schedule: Q01DX009 (ip), vehicle: saline with Tween-80
[7] = endpoint: mean survival time, dose: 100.0 mg/kg/injection, schedule: Q01DX001 (ip), vehicle: saline
[8] = endpoint: mean survival time, dose: 200.0 mg/kg/injection, schedule: Q01DX001 (ip), vehicle: saline

Measured: T/C

O/N=c1/ccn(O)c2ccccc12
inactive: endpoint: mean survival time, dose: 0.25 mg/kg/injection, schedule: Q03HX024 (ip), vehicle: saline 104 % of control | endpoint: mean survival time, dose: 0.5 mg/kg/injection, schedule: Q03HX008 (ip), vehicle: saline 112 % of control | endpoint: mean survival time, dose: 0.5 mg/kg/injection, schedule: Q03HX016 (ip), vehicle: saline 104 % of control | endpoint: mean survival time, dose: 0.5 mg/kg/injection, schedule: Q03HX024 (ip), vehicle: saline 116 % of control | endpoint: mean survival time, dose: 1.0 mg/kg/injection, schedule: Q01DX009 (ip), vehicle: saline 123 % of control | endpoint: mean survival time, dose: 1.0 mg/kg/injection, schedule: Q03HX008 (ip), vehicle: saline 113 % of control | endpoint: mean survival time, dose: 1.0 mg/kg/injection, schedule: Q03HX016 (ip), vehicle: saline 113 % of control | endpoint: mean survival time, dose: 2.0 mg/kg/injection, schedule: Q03HX024 (ip), vehicle: saline 123 % of control | endpoint: mean survival time, dose: 16.0 mg/kg/injection, schedule: Q01DX001 (ip), vehicle: saline 124 % of control | endpoint: mean survival time, dose: 16.0 mg/kg/injection, schedule: Q04DX003 (ip), vehicle: saline 96 % of control | endpoint: mean survival time, dose: 16.0 mg/kg/injection, schedule: Q08DX002 (ip), vehicle: saline 109 % of control | endpoint: mean survival time, dose: 32.0 mg/kg/injection, schedule: Q08DX002 (ip), vehicle: saline 88 % of control

O=C(O)c1cccc(S(=O)(=O)N(CCO)CCO)c1
inactive: [1] 94 % of control | [2] 98 % of control | [3] 94 % of control | [4] 94 % of control | [5] 94 % of control

NC(=O)CC(N)CO (stereo not given)
inactive: endpoint: mean survival time, dose: 50.0 mg/kg/injection, schedule: Q01DX009 (ip), vehicle: saline 93 % of control | endpoint: mean survival time, dose: 100.0 mg/kg/injection, schedule: Q01DX009 (ip), vehicle: saline 98 % of control | endpoint: mean survival time, dose: 200.0 mg/kg/injection, schedule: Q01DX009 (ip), vehicle: saline 95 % of control | endpoint: mean survival time, dose: 400.0 mg/kg/injection, schedule: Q01DX009 (ip), vehicle: saline 98 % of control

Cc1ccccc1NCc1ccccc1
inactive: endpoint: mean survival time, dose: 100.0 mg/kg/injection, schedule: Q04DX003 (ip), vehicle: other 101 % of control | endpoint: mean survival time, dose: 200.0 mg/kg/injection, schedule: Q04DX003 (ip), vehicle: other 103 % of control | endpoint: mean survival time, dose: 400.0 mg/kg/injection, schedule: Q04DX003 (ip), vehicle: other 100 % of control

COc1nc(C(Cl)(Cl)Cl)c(Cl)c(OC)c1Cl
inactive: endpoint: median survival time, dose: 12.5 mg/kg/injection, schedule: Q01DX009 (ip), vehicle: Klucel (hydroxypropylcellulose) (HPC) 108 % of control | endpoint: median survival time, dose: 25.0 mg/kg/injection, schedule: Q01DX009 (ip), vehicle: Klucel (hydroxypropylcellulose) (HPC) 98 % of control and 103 % of control | endpoint: median survival time, dose: 50.0 mg/kg/injection, schedule: Q01DX005 (ip), vehicle: Klucel (hydroxypropylcellulose) (HPC) 105 % of control and 112 % of control | endpoint: median survival time, dose: 50.0 mg/kg/injection, schedule: Q01DX009 (ip), vehicle: Klucel (hydroxypropylcellulose) (HPC) 106 % of control and 107 % of control | endpoint: median survival time, dose: 67.0 mg/kg/injection, schedule: Q01DX005 (ip), vehicle: Klucel (hydroxypropylcellulose) (HPC) 119 % of control and 102 % of control | endpoint: median survival time, dose: 90.0 mg/kg/injection, schedule: Q01DX005 (ip), vehicle: Klucel (hydroxypropylcellulose) (HPC) 105 % of control | endpoint: median survival time, dose: 120.0 mg/kg/injection, schedule: Q01DX005 (ip), vehicle: Klucel (hydroxypropylcellulose) (HPC) 113 % of control | endpoint: median survival time, dose: 200.0 mg/kg/injection, schedule: Q01DX009 (ip), vehicle: Klucel (hydroxypropylcellulose) (HPC) 115 % of control and 120 % of control

O=C(NC(=O)c1cn(C2OC(CO)C(O)C2O)nn1)Nc1ccc(Cl)cc1 (stereo not given)
inactive: endpoint: mean survival time, dose: 12.5 mg/kg/injection, schedule: Q01DX005 (ip), vehicle: other 93 % of control | endpoint: mean survival time, dose: 50.0 mg/kg/injection, schedule: Q01DX005 (ip), vehicle: other 90 % of control

CC(=O)N1c2cc3ccccc3cc2N(C(C)=O)c2cc3ccccc3cc21
inactive: [2] 103 % of control | [4] 103 % of control | [5] 107 % of control

CC(=O)C1C(=O)CC(C)(O)C(C(C)=O)C1c1ccccc1 (stereo not given)
inactive: [1] 93 % of control | [2] 101 % of control | [3] 96 % of control | [4] 101 % of control | [6] 94 % of control | [5] 103 % of control

CCOC(=O)Nc1ccc2c(c1)Cc1cc(N=Cc3ccc4c(c3)OCO4)ccc1-2
inactive: endpoint: mean survival time, dose: 100.0 mg/kg/injection, schedule: Q01DX001 (ip), vehicle: carboxymethylcellulose (CMC) 105 % of control | endpoint: mean survival time, dose: 200.0 mg/kg/injection, schedule: Q01DX001 (ip), vehicle: carboxymethylcellulose (CMC) 100 % of control | endpoint: mean survival time, dose: 400.0 mg/kg/injection, schedule: Q01DX001 (ip), vehicle: carboxymethylcellulose (CMC) 97 % of control

CCc1ccc(C)[nH]c1=S
inactive: endpoint: mean survival time, dose: 50.0 mg/kg/injection, schedule: Q01DX009 (ip), vehicle: saline with Tween-80 105 % of control | endpoint: mean survival time, dose: 100.0 mg/kg/injection, schedule: Q01DX001 (ip), vehicle: saline with Tween-80 102 % of control | [1] 98 % of control | endpoint: mean survival time, dose: 200.0 mg/kg/injection, schedule: Q01DX001 (ip), vehicle: saline with Tween-80 102 % of control | [3] 98 % of control

CC1(c2cc(F)cc3ccccc23)OC(=O)c2ccccc21 (stereo not given)
inactive: endpoint: median survival time, dose: 25.0 mg/kg/injection, schedule: Q04DX003 (ip), vehicle: saline with Tween-80 100 % of control | endpoint: median survival time, dose: 50.0 mg/kg/injection, schedule: Q04DX003 (ip), vehicle: saline with Tween-80 100 % of control | endpoint: median survival time, dose: 100.0 mg/kg/injection, schedule: Q04DX003 (ip), vehicle: saline with Tween-80 100 % of control | endpoint: median survival time, dose: 200.0 mg/kg/injection, schedule: Q04DX003 (ip), vehicle: saline with Tween-80 100 % of control

c1ccc(-c2ccc(C3=NN(c4ccccc4)C(c4ccccc4)C3NC3CCCCC3)cc2)cc1 (stereo not given)
inactive: endpoint: mean survival time, dose: 12.5 mg/kg/injection, schedule: Q01DX009 (ip), vehicle: other 100 % of control | endpoint: mean survival time, dose: 25.0 mg/kg/injection, schedule: Q01DX009 (ip), vehicle: other 104 % of control | endpoint: mean survival time, dose: 50.0 mg/kg/injection, schedule: Q01DX009 (ip), vehicle: other 98 % of control | endpoint: mean survival time, dose: 100.0 mg/kg/injection, schedule: Q01DX009 (ip), vehicle: other 106 % of control | endpoint: mean survival time, dose: 200.0 mg/kg/injection, schedule: Q01DX009 (ip), vehicle: other 98 % of control

CC(C)OC(=O)Nc1ccccc1Cl
inactive: endpoint: mean survival time, dose: 100.0 mg/kg/injection, schedule: Q04DX003 (ip), vehicle: saline sonified 92 % of control | endpoint: mean survival time, dose: 200.0 mg/kg/injection, schedule: Q04DX003 (ip), vehicle: saline sonified 94 % of control | endpoint: mean survival time, dose: 400.0 mg/kg/injection, schedule: Q04DX003 (ip), vehicle: saline sonified 94 % of control

CCCCCCC(=O)CC(SCC)c1ccccc1Cl (stereo not given)
inactive: endpoint: median survival time, dose: 25.0 mg/kg/injection, schedule: Q01DX009 (ip), vehicle: saline with Tween-80 100 % of control | endpoint: median survival time, dose: 50.0 mg/kg/injection, schedule: Q01DX009 (ip), vehicle: saline with Tween-80 104 % of control | endpoint: median survival time, dose: 100.0 mg/kg/injection, schedule: Q01DX009 (ip), vehicle: saline with Tween-80 100 % of control | endpoint: median survival time, dose: 200.0 mg/kg/injection, schedule: Q01DX009 (ip), vehicle: saline with Tween-80 97 % of control | endpoint: median survival time, dose: 400.0 mg/kg/injection, schedule: Q01DX009 (ip), vehicle: saline with Tween-80 98 % of control

NC(=S)N/N=C/c1ccccc1O
inactive: [1] 102 % of control | [3] 91 % of control | [6] 88 % of control

CCCC(O)C(N)CC (stereo not given)
inactive: [7] 98 % of control | [8] 90 % of control

CC(NC(=O)CN)C(=O)O (stereo not given)
inactive: [7] 100 % of control | [8] 100 % of control | endpoint: mean survival time, dose: 400.0 mg/kg/injection, schedule: Q01DX001 (ip), vehicle: saline 104 % of control

O=C1C=CC(=NS(=O)(=O)c2ccccc2)C=C1
inactive: endpoint: mean survival time, dose: 25.0 mg/kg/injection, schedule: Q01DX001 (ip), vehicle: other 93 % of control | endpoint: mean survival time, dose: 50.0 mg/kg/injection, schedule: Q01DX001 (ip), vehicle: other 95 % of control | endpoint: mean survival time, dose: 100.0 mg/kg/injection, schedule: Q01DX001 (ip), vehicle: other 104 % of control

C1CCC(C2CCCC[N-]2)[N-]C1.CSCCC([NH-])C(=O)O.[Cl][Pt] (stereo not given)
inactive: endpoint: median survival time, dose: 10.0 mg/kg/injection, schedule: Q04DX003 (ip), vehicle: saline 101 % of control | endpoint: median survival time, dose: 20.0 mg/kg/injection, schedule: Q04DX003 (ip), vehicle: saline 101 % of control | endpoint: median survival time, dose: 40.0 mg/kg/injection, schedule: Q04DX003 (ip), vehicle: saline 94 % of control | endpoint: median survival time, dose: 80.0 mg/kg/injection, schedule: Q04DX003 (ip), vehicle: saline 101 % of control and 103 % of control | endpoint: median survival time, dose: 160.0 mg/kg/injection, schedule: Q04DX003 (ip), vehicle: saline 96 % of control | endpoint: median survival time, dose: 320.0 mg/kg/injection, schedule: Q04DX003 (ip), vehicle: saline 108 % of control
